Data published in PubChem BioAssay AID256 (DTP/NCI, 2004).
Toxic doses and inconclusive results are not listed. The calls were made as follows: active = survival T/C of 150% or more; inactive = T/C below 125% in these data.

System: CD2F1 mice, L1210 leukemia ip, survival T/C
Assay: NCI In Vivo Anticancer Drug Screen. Data for tumor model L1210 Leukemia (intraperitoneal) in CD2F1 (CDF1) mice
Details: endpoint: mean survival time, higher = longer survival
How it was run: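 Activity against a transplanted murine tumor was judged by comparing the compound group with a vehicle group. The outcome in the treated animals was divided by that in the controls.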

[1] = dose: 100.0 mg/kg/injection, schedule: Q01DX009 (ip), vehicle: saline with Tween-80
[2] = dose: 100.0 mg/kg/injection, schedule: Q04DX003 (ip), vehicle: saline with Tween-80
[3] = dose: 200.0 mg/kg/injection, schedule: Q01DX009 (ip), vehicle: saline with Tween-80
[4] = dose: 200.0 mg/kg/injection, schedule: Q04DX003 (ip), vehicle: saline with Tween-80
[5] = dose: 400.0 mg/kg/injection, schedule: Q01DX009 (ip), vehicle: saline with Tween-80
[6] = dose: 400.0 mg/kg/injection, schedule: Q04DX003 (ip), vehicle: saline with Tween-80
[7] = dose: 50.0 mg/kg/injection, schedule: Q04DX003 (ip), vehicle: saline with Tween-80
[8] = dose: 100.0 mg/kg/injection, schedule: Q01DX001 (ip), vehicle: saline with Tween-80
[9] = dose: 200.0 mg/kg/injection, schedule: Q01DX001 (ip), vehicle: saline with Tween-80
[10] = dose: 400.0 mg/kg/injection, schedule: Q01DX001 (ip), vehicle: saline with Tween-80
[11] = dose: 100.0 mg/kg/injection, schedule: Q01DX009 (ip), vehicle: saline
[12] = dose: 100.0 mg/kg/injection, schedule: Q04DX003 (ip), vehicle: saline
[13] = dose: 200.0 mg/kg/injection, schedule: Q01DX009 (ip), vehicle: saline
[14] = dose: 200.0 mg/kg/injection, schedule: Q04DX003 (ip), vehicle: saline
[15] = dose: 400.0 mg/kg/injection, schedule: Q04DX003 (ip), vehicle: saline
[16] = dose: 50.0 mg/kg/injection, schedule: Q01DX009 (ip), vehicle: saline
[17] = dose: 100.0 mg/kg/injection, schedule: Q01DX009 (ip), vehicle: other
[18] = dose: 200.0 mg/kg/injection, schedule: Q01DX009 (ip), vehicle: other
[19] = dose: 400.0 mg/kg/injection, schedule: Q01DX009 (ip), vehicle: other
[20] = dose: 50.0 mg/kg/injection, schedule: Q01DX009 (ip), vehicle: saline with Tween-80

Measured: T/C

CCOC(=O)c1ccc(OC(=O)Nc2ccccc2OC)cc1
inactive: [1] 96 % of control | [2] 103 % of control | [3] 92 % of control | [4] 100 % of control | [5] 94 % of control | [6] 102 % of control

CO[C@@]12[C@H](COC(N)=O)C3=C(C(=O)C(C)=C(NCCO)C3=O)N1C[C@@H]1N[C@@H]12
inactive: dose: 10.2 mg/kg/injection, schedule: Q01DX001 (ip), vehicle: saline 96 % of control | dose: 15.5 mg/kg/injection, schedule: Q01DX001 (ip), vehicle: saline 96 % of control | dose: 23.2 mg/kg/injection, schedule: Q01DX001 (ip), vehicle: saline 112 % of control

O=C(O)c1cc2ccccc2oc1=O
inactive: dose: 2.5 mg/kg/injection, schedule: Q01DX009 (ip), vehicle: Klucel (hydroxypropylcellulose) (HPC) 103 % of control | dose: 5.0 mg/kg/injection, schedule: Q01DX009 (ip), vehicle: Klucel (hydroxypropylcellulose) (HPC) 108 % of control | dose: 10.0 mg/kg/injection, schedule: Q01DX009 (ip), vehicle: Klucel (hydroxypropylcellulose) (HPC) 108 % of control | dose: 25.0 mg/kg/injection, schedule: Q04DX003 (ip), vehicle: saline with Tween-80 104 % of control | [7] 112 % of control

Cc1ccc(S(=O)(=O)OC2C(O)OC3COC(c4ccccc4)OC3C2OS(=O)(=O)c2ccc(C)cc2)cc1 (centres undefined)
inactive: [8] 94 % of control | [9] 105 % of control | [10] 94 % of control

CC1CN(CCC#N)CC(C)O1 (centres undefined)
inactive: [11] 105 % of control | [12] 95 % of control | [13] 104 % of control | [14] 104 % of control | dose: 400.0 mg/kg/injection, schedule: Q01DX009 (ip), vehicle: saline 104 % of control | [15] 104 % of control

CC(/C=N/N(C)C)=N\N(C)C
inactive: [16] 108 % of control | [11] 96 % of control

OCCN(CCO)c1ccc(O)cc1
inactive: dose: 5.0 mg/kg/injection, schedule: Q01DX001 (ip), vehicle: saline 92 % of control | dose: 10.0 mg/kg/injection, schedule: Q01DX001 (ip), vehicle: saline 92 % of control | dose: 20.0 mg/kg/injection, schedule: Q01DX001 (ip), vehicle: saline 92 % of control | dose: 40.0 mg/kg/injection, schedule: Q01DX001 (ip), vehicle: saline 92 % of control | dose: 75.0 mg/kg/injection, schedule: Q01DX001 (ip), vehicle: saline 103 % of control | dose: 150.0 mg/kg/injection, schedule: Q01DX001 (ip), vehicle: saline 101 % of control

C[Si](OP(=O)(O[Si](C)(c1ccccc1)c1ccccc1)N(CCCl)CCCl)(c1ccccc1)c1ccccc1
inactive: dose: 15.63 mg/kg/injection, schedule: Q01DX001 (ip), vehicle: distilled water + Tween-80 104 % of control | dose: 31.25 mg/kg/injection, schedule: Q01DX001 (ip), vehicle: distilled water + Tween-80 97 % of control | dose: 62.5 mg/kg/injection, schedule: Q01DX001 (ip), vehicle: distilled water + Tween-80 101 % of control | dose: 125.0 mg/kg/injection, schedule: Q01DX001 (ip), vehicle: distilled water + Tween-80 95 % of control | dose: 250.0 mg/kg/injection, schedule: Q01DX001 (ip), vehicle: distilled water + Tween-80 97 % of control | dose: 500.0 mg/kg/injection, schedule: Q01DX001 (ip), vehicle: distilled water + Tween-80 115 % of control

COc1ccc2c(oc(=O)c3c(Cl)nc(C)c(C)c32)c1OC
inactive: dose: 25.0 mg/kg/injection, schedule: Q01DX009 (ip), vehicle: Klucel (hydroxypropylcellulose) (HPC) 102 % of control | dose: 50.0 mg/kg/injection, schedule: Q01DX009 (ip), vehicle: Klucel (hydroxypropylcellulose) (HPC) 95 % of control | dose: 100.0 mg/kg/injection, schedule: Q01DX009 (ip), vehicle: Klucel (hydroxypropylcellulose) (HPC) 93 % of control | dose: 200.0 mg/kg/injection, schedule: Q01DX009 (ip), vehicle: Klucel (hydroxypropylcellulose) (HPC) 93 % of control

CC(COP(N)(=O)N(CCCl)CCCl)C(C)OCc1ccccc1 (centres undefined)
inactive: dose: 15.62 mg/kg/injection, schedule: Q01DX001 (ip), vehicle: DMSO 101 % of control | dose: 31.3 mg/kg/injection, schedule: Q01DX001 (ip), vehicle: DMSO 106 % of control | dose: 62.5 mg/kg/injection, schedule: Q01DX001 (ip), vehicle: DMSO 101 % of control | dose: 125.0 mg/kg/injection, schedule: Q01DX001 (ip), vehicle: DMSO 103 % of control | dose: 250.0 mg/kg/injection, schedule: Q01DX001 (ip), vehicle: DMSO 95 % of control | dose: 500.0 mg/kg/injection, schedule: Q01DX001 (ip), vehicle: DMSO 93 % of control

O/N=C1\CCCCC1C(O)(/C(=N/O)c1ccccc1)c1ccccc1 (centres undefined)
inactive: [8] 96 % of control | [9] 86 % of control | [10] 91 % of control

c1ccc2nc3ccccc3cc2c1
inactive: [1] 101 % of control | [3] 103 % of control

CCC1(CCC#N)CCC(N)=CC1=O (centres undefined)
inactive: [2] 104 % of control | [4] 95 % of control | [6] 101 % of control

CCCCCCCCCCC(=O)CCCCC
inactive: [17] 101 % of control | dose: 100.0 mg/kg/injection, schedule: Q04DX003 (ip), vehicle: other 105 % of control | [18] 107 % of control | dose: 200.0 mg/kg/injection, schedule: Q04DX003 (ip), vehicle: other 100 % of control | [19] 104 % of control | dose: 400.0 mg/kg/injection, schedule: Q04DX003 (ip), vehicle: other 94 % of control

COc1cc(C(=O)O)cc(OC)c1OC
inactive: [8] 97 % of control | [9] 97 % of control | [10] 97 % of control

Cc1ccc2c(c1)=N/C(=N\c1nc(O)c(O)[nH]1)N=2
inactive: [1] 104 % of control | [3] 92 % of control | [5] 104 % of control

CC1(C)OCC(C(O)C(O)C(O)CO)O1 (centres undefined)
inactive: [16] 102 % of control | [11] 98 % of control | [13] 102 % of control

CN(C)c1ccc(N=C(C#N)C(=O)c2ccccc2)cc1
inactive: [1] 95 % of control | [3] 97 % of control | [5] 97 % of control

Cc1ccc(C(CS(=O)(=O)c2ccc(C)cc2)c2ccccc2)cc1 (centres undefined)
inactive: [12] 93 % of control | [14] 93 % of control | [15] 98 % of control

OC(CCC(O)CSc1ccccc1)CSc1ccccc1 (centres undefined)
inactive: [17] 100 % of control | [18] 100 % of control | [19] 96 % of control

COc1cc(Br)c(CCNC(=O)Cc2cc(OC)c(OC)cc2Br)cc1OC
inactive: [2] 91 % of control | [4] 86 % of control

Clc1ccc(N=C(Nc2ccc(Cl)cc2)c2ccccc2)cc1
inactive: [2] 104 % of control | [4] 110 % of control | [6] 98 % of control

CCCCC(CC)CNCC(CC)CCCC (centres undefined)
inactive: [7] 93 % of control | [2] 91 % of control

CSCC1CCCCC12OCCO2 (centres undefined)
inactive: [8] 104 % of control | [9] 96 % of control | [10] 96 % of control

CCN(CC)CCC(=O)c1ccc2ccc3ccccc3c2c1
inactive: dose: 50.0 mg/kg/injection, schedule: Q01DX001 (ip), vehicle: saline 93 % of control | dose: 100.0 mg/kg/injection, schedule: Q01DX001 (ip), vehicle: saline 89 % of control

CN(C)c1ccc(-c2c3cc(O)c(=O)cc-3oc3cc(O)c(O)cc23)cc1
inactive: [20] 92 % of control | [1] 95 % of control | [3] 91 % of control

COc1cc2c(cc1OCc1ccccc1)NC(=O)C2
inactive: [8] 91 % of control | [10] 86 % of control

CCCC(C)CC(=CC(C)(C)C)CC(C)CCC (centres undefined)
inactive: [20] 96 % of control | [1] 100 % of control | [3] 100 % of control
